From patent publication US12110289B2, “Heterocyclic compounds, preparation methods and uses thereof” (InventisBio Co., Ltd., priority 2020, dated 2024)

Each molecule was assayed on Lung cancer cell line NCI-H358 containing KRas G12C mutation (assay: Assay for cell proliferation (Cell-titer Glo, 5 days)). Settings: Homo sapiens, NCI-H358, 120 h, NCI-H358, 5 days, Cell-titer Glo; read-out: IC50 (nM), Inhibition of NCI-H358 Cell Proliferation.
Format: cell-based, human
Method in brief: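 NCI-H358 (KRas G12C) cells, 2000 per well, attached overnight at 37 °C, 5% CO2, then treated with compound for 5 days at 0.5% DMSO final. Proliferation measured by CellTiter-Glo luminescence after 10 min at RT.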

| IC50 [nM] | Compound |
| --- | --- |
| 9.7 | C=CC(=O)N1C[C@H](C)N(c2nc(=O)n(-c3c(C4CC4)nc(N4CCNCC4)nc3C3CC3)c3nc(-c4ccccc4F)c(Cl)cc23)C[C@H]1C [Compound 85] |
| 8.6 | C=CC(=O)N1C[C@H](C)N(c2nc(=O)n(-c3c(C4CC4)nc(N4CCNCC4)nc3C3CC3)c3nc(-c4c(O)cccc4F)c(Cl)cc23)C[C@H]1C [Compound 86] |
| 4.1 | C=CC(=O)N1C[C@H](C)N(c2nc(=O)n(-c3c(C(C)C)nc(N4CCNCC4)nc3C(C)C)c3nc(-c4c(N)cccc4F)c(Cl)cc23)C[C@H]1C [Compound 87] |
| 21.2 | C=CC(=O)N1CCN(c2nc(=O)n(-c3c(C4CC4)nc(N4CCNCC4)nc3C3CC3)c3nc(-c4c(O)cccc4F)c(Cl)cc23)[C@@H](C)C1 [Compound 88] |
| 1.5 | C=CC(=O)N1CCN(c2nc(=O)n(-c3c(C4CC4)nc(N4CCN(C)CC4)nc3C3CC3)c3nc(-c4c(O)cccc4F)c(Cl)cc23)[C@@H](C)C1 [Compound 89] |
| 7.8 | C=CC(=O)N1CCN(c2nc(=O)n(-c3c(C4CC4)nc(N4CCN(C)CC4)nc3C3CC3)c3nc(-c4ccccc4F)c(Cl)cc23)[C@@H](C)C1 [Compound 91] |
| 2.8 | C=CC(=O)N1CCN(c2nc(=O)n(-c3c(C4CC4)nc(N4CCNCC4)nc3C3CC3)c3nc(-c4c(N)cccc4F)c(Cl)cc23)[C@@H](C)C1 [Compound 92] |
| 1.8 | C=CC(=O)N1CCN(c2nc(=O)n(-c3c(C4CC4)nc(N4CCN(C)CC4)nc3C3CC3)c3nc(-c4c(N)cccc4F)c(Cl)cc23)[C@@H](C)C1 [Compound 93] |
| 37.5 | C=CC(=O)N1C[C@H](C)N(c2nc(=O)n(-c3c(C(C)C)nc(N4CCNCC4)nc3C(C)C)c3nc(-c4ccccc4F)c(F)cc23)C[C@H]1C [Compound 94] |
| 14.6 | C=CC(=O)N1C[C@H](C)N(c2nc(=O)n(-c3c(C(C)C)nc(N4CCNCC4)nc3C(C)C)c3nc(-c4c(O)cccc4F)c(F)cc23)C[C@H]1C [Compound 95] |
| 10.8 | C=CC(=O)N1C[C@H](C)N(c2nc(=O)n(-c3c(C(C)C)nc(N4CCNCC4)nc3C(C)C)c3nc(-c4c(N)cccc4F)c(F)cc23)C[C@H]1C [Compound 96] |
| 7.3 | C=CC(=O)N1C[C@H](C)N(c2nc(=O)n(-c3c(C(C)C)nc(N4CCN(C)CC4)nc3C(C)C)c3nc(-c4c(N)cccc4F)c(F)cc23)C[C@H]1C [Compound 97] |
| 7.4 | C=CC(=O)N1C[C@H](C)N(c2nc(=O)n(-c3c(C4CC4)nc(N4CCNCC4)nc3C3CC3)c3nc(-c4c(N)cccc4F)c(F)cc23)C[C@H]1C [Compound 98] |
| 5.8 | C=CC(=O)N1C[C@H](C)N(c2nc(=O)n(-c3c(C4CC4)nc(N4CCN(C)CC4)nc3C3CC3)c3nc(-c4c(N)cccc4F)c(F)cc23)C[C@H]1C [Compound 99] |
| 14.1 | C=CC(=O)N1C[C@H](C)N(c2nc(=O)n(-c3c(C4CC4)nc(N4CCNCC4)nc3C3CC3)c3nc(-c4c(O)cccc4F)c(F)cc23)C[C@H]1C [Compound 100] |
| 25.8 | C=CC(=O)N1C[C@H](C)N(c2nc(=O)n(-c3c(C4CC4)nc(N4CCN(C)CC4)nc3C3CC3)c3nc(-c4c(O)cccc4F)c(F)cc23)C[C@H]1C [Compound 101] |
| 37.4 | C=CC(=O)N1C[C@H](C)N(c2nc(=O)n(-c3c(C4CC4)nc(N4CCNCC4)nc3C3CC3)c3nc(-c4ccccc4F)c(F)cc23)C[C@H]1C [Compound 102] |
| 47.6 | C=CC(=O)N1C[C@H](C)N(c2nc(=O)n(-c3c(C4CC4)nc(N4CCN(C)CC4)nc3C3CC3)c3nc(-c4ccccc4F)c(F)cc23)C[C@H]1C [Compound 103] |
| 8.8 | C=CC(=O)N1CCN(c2nc(=O)n(-c3c(C(C)C)nc(C4CC4)nc3C(C)C)c3nc(-c4c(N)cccc4F)c(F)cc23)[C@@H](C)C1 [Compound 105] |
| 10.2 | C=CC(=O)N1CCN(c2nc(=O)n(-c3c(C(C)C)nc(N)nc3C(C)C)c3nc(-c4c(O)cccc4F)c(Cl)cc23)[C@@H](C)C1 [Compound 106] |
| 5.2 | C=CC(=O)N1C[C@H](C)N(c2nc(=O)n(-c3c(C(C)C)nc(N)nc3C(C)C)c3nc(-c4c(O)cccc4F)c(Cl)cc23)C[C@H]1C [Compound 107] |

| IC50 [nM] | Compound |
| --- | --- |
| 46.5 | C=CC(=O)N1CCN(c2nc(=O)n(-c3c(C(C)C)nc(N)nc3C(C)C)c3nc(-c4c(O)cccc4F)c(F)cc23)[C@@H](C)C1 [Compound 108] |
| 12.3 | C=CC(=O)N1C[C@H](C)N(c2nc(=O)n(-c3c(C(C)C)nc(N)nc3C(C)C)c3nc(-c4c(O)cccc4F)c(F)cc23)C[C@H]1C [Compound 109] |
| 10.1 | C=CC(=O)N1CCN(c2nc(=O)n(-c3c(C4CC4)nc(N)nc3C3CC3)c3nc(-c4c(O)cccc4F)c(Cl)cc23)[C@@H](C)C1 [Compound 110] |
| 6.3 | C=CC(=O)N1C[C@H](C)N(c2nc(=O)n(-c3c(C4CC4)nc(N)nc3C3CC3)c3nc(-c4c(O)cccc4F)c(Cl)cc23)C[C@H]1C [Compound 111] |
| 32.1 | C=CC(=O)N1CCN(c2nc(=O)n(-c3c(C4CC4)nc(N)nc3C3CC3)c3nc(-c4c(O)cccc4F)c(F)cc23)[C@@H](C)C1 [Compound 112] |
| 48.5 | C=CC(=O)N1C[C@H](C)N(c2nc(=O)n(-c3c(C4CC4)nc(N)nc3C3CC3)c3nc(-c4c(O)cccc4F)c(F)cc23)C[C@H]1C [Compound 113] |
| 497 | C=CC(=O)N1C[C@H](C)N(c2nc(=O)n(-c3c(C4CC4)nc(C)nc3C3CC3)c3nc(-c4cccc5[nH]nc(N)c45)c(F)cc23)C[C@H]1C [Compound 114] |
| 4.6 | C=CC(=O)N1C[C@H](C)N(c2nc(=O)n(-c3c(C4CC4)nc(N4CCNCC4)nc3C3CC3)c3nc(-c4c(N)cccc4F)c(Cl)cc23)C[C@H]1C [Compound 115] |
| 15.8 | C=CC(=O)N1CCN(c2nc(=O)n(-c3c(C4CC4)nc(N4CCNCC4)nc3C3CC3)c3nc(-c4ccccc4F)c(Cl)cc23)[C@@H](C)C1 [Compound 116] |
| 12.9 | C=CC(=O)N1CCN(c2nc(=O)n(-c3c(C(C)C)nc4ocnc4c3C)c3nc(-c4ccccc4F)c(Cl)cc23)[C@@H](C)C1 [Compound 117] |
| 40.2 | C=CC(=O)N1CCN(c2nc(=O)n(-c3c(C(C)C)nc(C(F)(F)F)nc3C(C)C)c3nc(-c4c(N)cccc4F)c(F)cc23)[C@@H](C)C1 [Compound 118] |
| 9.6 | C=CC(=O)N1CCN(c2nc(=O)n(-c3c(C4CC4)nc(OC(F)F)nc3C3CC3)c3nc(-c4c(N)cccc4F)c(F)cc23)[C@@H](C)C1 [Compound 119] |
| 146 | C[C@H]1CN(C(=O)/C=C/CN2CC(F)C2)CCN1c1nc(=O)n(-c2c(C3CC3)ncnc2C2CC2)c2nc(-c3c(N)cccc3F)c(Cl)cc12 [Compound 120] |
| > 3000 | C=CC(=O)N1C[C@H](C)N(c2nc(=O)n(-c3c(C(C)C)nc(C(=O)O)nc3C(C)C)c3nc(-c4ccccc4F)c(F)cc23)C[C@H]1C [Compound 121] |
| > 3000 | C=CC(=O)N1C[C@H](C)N(c2nc(=O)n(-c3c(C(C)C)nc(C(=O)O)nc3C(C)C)c3nc(-c4c(O)cccc4F)c(F)cc23)C[C@H]1C [Compound 122] |
| > 3000 | C=CC(=O)N1C[C@H](C)N(c2nc(=O)n(-c3c(C(C)C)nc(C(=O)O)nc3C(C)C)c3nc(-c4c(N)cccc4F)c(F)cc23)C[C@H]1C [Compound 123] |
| 210 | C=C(F)C(=O)N1CCN(c2nc(=O)n(-c3c(C4CC4)ncnc3C3CC3)c3nc(-c4c(N)cccc4F)c(Cl)cc23)[C@@H](C)C1 [Compound 131] |
| 157 | C=C(F)C(=O)N1C[C@H](C)N(c2nc(=O)n(-c3c(C4CC4)ncnc3C3CC3)c3nc(-c4c(N)cccc4F)c(Cl)cc23)C[C@H]1C [Compound 132] |
| 58.7 | COC/C=C/C(=O)N1C[C@H](C)N(c2nc(=O)n(-c3c(C4CC4)ncnc3C3CC3)c3nc(-c4c(N)cccc4F)c(Cl)cc23)C[C@H]1C [Compound 140] |
| 1.5 | C=CC(=O)N1C[C@H](C)N(c2nc(=O)n(-c3c(F)cc4c(ncn4C)c3C(C)C)c3nc(-c4c(O)cccc4F)c(Cl)cc23)C[C@H]1C [Compound 166] |

Same assay, conditions: NCI-H358, 5 days, Cell-titer Glo; read-out: IC50 (nM), Inhibition of NCI-H358 Cell Proliferation

| IC50 [nM] | Compound |
| --- | --- |
| 0.4 | C=CC(=O)N1CCN(c2nc(=O)n(-c3c(C)cc4c(ncn4C)c3C(C)C)c3nc(-c4c(N)cccc4F)c(Cl)cc23)[C@@H](C)C1 [Compound 152] |
| 152 | C=CC(=O)N1CCN(c2nc(=O)n(-c3c(C)nc4c(ncn4C)c3C(C)C)c3nc(-c4c(N)cccc4F)c(F)cc23)[C@@H](C)C1 [Compound 157] |
| 44.4 | C=CC(=O)N1C[C@H](C)N(c2nc(=O)n(-c3c(C(C)C)nc4c(ncn4C)c3C)c3nc(-c4ccccc4F)c(Cl)cc23)C[C@H]1C [Compound 181] |
